US20090018134A1, “Compounds - 945” (AstraZeneca AB, priority 2007, published 2009)

The molecules below were run against T1, mTOR (Homo sapiens, UniProt P42345) (assay: In Vitro mTOR Kinase Assay (Echo), Test (a)(ii)). Details: read-out: mTOR Kinase Assay (Echo).
T1 construct: FLAG; made in house
Format: biochemical
How it was run: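 Enzyme: HEK293-expressed, FLAG-purified mTOR C-terminal fragment (aa 1362-2549). Rxn 2 h RT with biotinylated peptide, stopped with EDTA 50 mM/BSA/Tris pH 7.4. Detection: T389 phospho-antibody AlphaScreen, 680 nm excitation. IC50.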

T1 sequence (P42345 1362-2549): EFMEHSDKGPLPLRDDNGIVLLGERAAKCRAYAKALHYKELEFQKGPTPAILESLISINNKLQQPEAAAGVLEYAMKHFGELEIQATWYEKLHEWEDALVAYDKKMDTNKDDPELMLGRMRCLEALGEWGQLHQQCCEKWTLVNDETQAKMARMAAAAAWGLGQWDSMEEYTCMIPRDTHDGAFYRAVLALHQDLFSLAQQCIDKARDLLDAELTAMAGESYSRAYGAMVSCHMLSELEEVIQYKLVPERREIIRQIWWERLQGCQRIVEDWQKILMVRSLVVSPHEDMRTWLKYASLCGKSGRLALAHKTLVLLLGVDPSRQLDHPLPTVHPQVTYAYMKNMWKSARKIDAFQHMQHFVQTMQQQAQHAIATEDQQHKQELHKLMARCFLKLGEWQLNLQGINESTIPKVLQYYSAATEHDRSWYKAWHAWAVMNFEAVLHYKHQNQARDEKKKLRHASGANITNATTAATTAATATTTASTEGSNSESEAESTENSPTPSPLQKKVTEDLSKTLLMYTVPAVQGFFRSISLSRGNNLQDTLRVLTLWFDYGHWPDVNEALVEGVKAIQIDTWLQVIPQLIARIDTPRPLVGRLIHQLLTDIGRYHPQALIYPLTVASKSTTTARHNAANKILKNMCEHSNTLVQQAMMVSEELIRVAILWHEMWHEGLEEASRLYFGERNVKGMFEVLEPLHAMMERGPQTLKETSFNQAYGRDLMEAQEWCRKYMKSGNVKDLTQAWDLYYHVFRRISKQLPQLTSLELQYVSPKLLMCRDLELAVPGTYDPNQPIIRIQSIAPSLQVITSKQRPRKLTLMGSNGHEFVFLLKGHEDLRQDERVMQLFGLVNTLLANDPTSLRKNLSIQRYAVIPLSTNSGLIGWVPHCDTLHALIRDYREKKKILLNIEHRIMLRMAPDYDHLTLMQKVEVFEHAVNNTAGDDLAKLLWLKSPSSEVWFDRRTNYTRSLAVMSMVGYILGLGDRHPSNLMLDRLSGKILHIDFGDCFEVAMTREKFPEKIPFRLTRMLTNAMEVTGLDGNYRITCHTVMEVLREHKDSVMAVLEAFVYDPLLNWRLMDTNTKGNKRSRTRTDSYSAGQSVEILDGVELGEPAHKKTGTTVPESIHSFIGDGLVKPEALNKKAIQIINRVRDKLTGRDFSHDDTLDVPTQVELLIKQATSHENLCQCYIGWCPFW

| IC50 [nM] | SMILES |
| --- | --- |
| 39.2 | C[C@H]1COCCN1c1cc(C2(S(C)(=O)=O)CCCC2)nc(-c2ccc(NC(=O)NCc3ncc[nH]3)cc2)n1 [Example 4n, 3-(1H-imidazol-2-ylmethyl)-1-[4-[4-[(3S)-3-methylmorpholin-4-yl]-6-(1-methylsulfonylcyclopentyl)pyrimidin-2-yl]phenyl]urea] |
| 2.76 | CCNC(=O)Nc1ccc(-c2nc(N3CCOC[C@@H]3C)cc(C3(S(C)(=O)=O)CC3)n2)cc1 [Example 1, 3-Ethyl-1-[4-[4-[(3S)-3-methylmorpholin-4-yl]-6-(1-methylsulfonylcyclopropyl)pyrimidin-2-yl]phenyl]urea] |
| 0.932 | CNC(=O)Nc1ccc(-c2nc(N3CCOC[C@@H]3C)cc(C3(S(=O)(=O)C4CC4)CC3)n2)cc1 [Example 3i, 1-[4-[4-(1-cyclopropylsulfonylcyclopropyl)-6-[(3S)-3-methylmorpholin-4-yl]pyrimidin-2-yl]phenyl]-3-methyl-urea] |

Same assay, conditions: table of enzyme assay Test (a)(ii); read-out: Test (a)(ii) IC50

| SMILES | IC50 [nM] |
| --- | --- |
| C[C@H]1COCCN1c1cc(C2(S(=O)(=O)C3CC3)CC2)nc(-c2cnc(NC(=O)NCCO)nc2)n1 [Example 14y, 1-[5-[4-(1-cyclopropylsulfonylcyclopropyl)-6-[(3S)-3-methylmorpholin-4-yl]pyrimidin-2-yl]pyrimidin-2-yl]-3-(2-hydroxyethyl)urea] | 152 |
| N#CCCNC(=O)Nc1ccc(-c2nc(N3CCOCC3)cc(C3(S(=O)(=O)c4ccccc4)CC3)n2)cc1 [Example 36dh, 1-[4-[4-[1-(benzenesulfonyl)cyclopropyl]-6-morpholin-4-ylpyrimidin-2-yl]phenyl]-3-(2-cyanoethyl)urea] | 3.4 |
| C[C@H]1COCCN1c1cc(C2(S(=O)(=O)c3cc(F)cc(F)c3)CC2)nc(-c2ccc(NC(=O)NCCN(C)C)cc2)n1 [Example 19f, 1-[4-[4-[1-(3,5-difluorophenyl)sulfonylcyclopro-pyl]-6-[(3S)-3-methylmorpholin-4-yl]pyrimidin-2-yl]phenyl]-3-(2-dimethylaminoethyl)urea] | 80.4 |
| CCS(=O)(=O)C1(c2cc(N3CCOC[C@@H]3C)nc(-c3ccc(NC(=S)NCCO)cc3)n2)CCC1 [Example 88a, 1-[4-[4-(1-ethylsulfonylcyclobutyl)-6-[(3S)-3-methylmorpholin-4-yl]pyrimidin-2-yl]phenyl]-3-(2-hydroxyethyl)thiourea] | 4.48 |

More lines, now with the values ahead:

| IC50 [nM] | SMILES |
| --- | --- |
| 1.57 | C[C@H]1COCCN1c1cc(C2(S(=O)(=O)c3ccccn3)CC2)nc(-c2ccc(NC(=O)Nc3ncns3)cc2)n1 [Example 36ct, 1-[4-[4-[(3S)-3-methylmorpholin-4-yl]-6-(1-pyridin-2-ylsulfonylcyclopropyl)pyrimidin-2-yl]phenyl]-3-(1,2,4-thiadiazol-5-yl)urea] |
| 15.3 | CNC(=O)Nc1ccc(-c2nc(N3CCOC[C@@H]3C)cc(C3(S(=O)(=O)c4sc(C)nc4C)CC3)n2)cc1 [Example 78a, 1-[4-[4-[1-[(2,4-dimethyl-1,3-thiazol-5-yl)sulfonyl]cyclopropyl]-6-[(3S)-3-methylmorpholin-4-yl]pyrimidin-2-yl]phenyl]-3-methylurea] |
| 14.3 | C[C@H]1COCCN1c1cc(C2(S(=O)(=O)c3ccccc3)CCCC2)nc(-c2ccc(NC(=O)NCCC#N)cc2)n1 [Example 36bz, 1-[4-[4-[1-(benzenesulfonyl)cyclopentyl]-6-[(3S)-3-methylmorpholin-4-yl]pyrimidin-2-yl]phenyl]-3-(2-cyanoethyl)urea] |
| 17.5 | Cc1nc(C)c(S(=O)(=O)C2(c3cc(N4CCOC[C@@H]4C)nc(-c4ccc(NC(=O)NCC(F)F)cc4)n3)CC2)s1 [Example 78d, 3-(2,2-difluoroethyl)-1-[4-[4-[1-[(2,4-dimethyl-1,3-thiazol-5-yl)sulfonyl]cyclopropyl]-6-[(3S)-3-methylmorpholin-4-yl]pyrimidin-2-yl]phenyl]urea] |
| 0.669 | C[C@H]1COCCN1c1cc(C2(S(=O)(=O)c3cccc(F)c3)CC2)nc(-c2ccc(NC(=O)NCCO)cc2)n1 [Example 53b, 1-[4-[4-[1-(3-fluorophenyl)sulfonylcyclopro-pyl]-6-[(3S)-3-methylmorpholin-4-yl]pyrimidin-2-yl]phenyl]-3-(2-hydroxyethyl)urea] |
